Laboratory results reported in patent US9738642B2, “Triazolopyridine ether derivatives and their use in neurological and pyschiatric disorders” (BRISTOL-MYERS SQUIBB COMPANY, priority 2013, dated 2017).
Structures can show the parent of a compound that is named as a salt.

target: T1, human mGluR2 (Homo sapiens, UniProt Q14416); experiment: mGluR2 cAMP assay; format: cell-based; conditions: clonally expressed human mGluR2 in HEK293; 1 μM forskolin, 1 μM LY-341495, 30 min; CISBIO cAMP kit; read-out: EC50 (nM), activity in mGluR2 cAMP assay
T1 construct: expressed in transfected cells; host or cells: HEK293 clonal line
Description: On the day of the assay, media was removed, cells washed with PBS, cells harvested and pelleted by centrifugation. Cell pellets were resuspended in stimulation buffer without forskolin and counted. […] A standard curve was created using a top concentration of cAMP of 1 μM in the stimulation buffer, 1:3 dilutions over 14 points in the absence of cells. […] In house software converted the fluorescence value ratios to units of cAMP concentration, which is then used to calculate % inhibition for each test compound. MGluR2 cAMP Assay Materials and Methods. […] Buffer without forskolin was used as a negative control. Solutions of D2 and cryptate detection reagents from the CISBIO dynamic cAMP kit (62AM4PEJ) were diluted 1:40 in lysis buffer. Lysis buffer consisted of 50 mM Phosphate Buffer pH 7.0, 800 mM Potassium Fluoride, 0.2% BSA, and 1.0% Triton. Assay reaction was terminated by addition of detection reagents in lysis buffer. One hour later, plates were read on a PE Viewlux. Data was extracted, and concentration response curves generated by fitting the data to a standard 4 parameter logistic equation from which EC50 values were determined.

T1 sequence (Q14416 19-872): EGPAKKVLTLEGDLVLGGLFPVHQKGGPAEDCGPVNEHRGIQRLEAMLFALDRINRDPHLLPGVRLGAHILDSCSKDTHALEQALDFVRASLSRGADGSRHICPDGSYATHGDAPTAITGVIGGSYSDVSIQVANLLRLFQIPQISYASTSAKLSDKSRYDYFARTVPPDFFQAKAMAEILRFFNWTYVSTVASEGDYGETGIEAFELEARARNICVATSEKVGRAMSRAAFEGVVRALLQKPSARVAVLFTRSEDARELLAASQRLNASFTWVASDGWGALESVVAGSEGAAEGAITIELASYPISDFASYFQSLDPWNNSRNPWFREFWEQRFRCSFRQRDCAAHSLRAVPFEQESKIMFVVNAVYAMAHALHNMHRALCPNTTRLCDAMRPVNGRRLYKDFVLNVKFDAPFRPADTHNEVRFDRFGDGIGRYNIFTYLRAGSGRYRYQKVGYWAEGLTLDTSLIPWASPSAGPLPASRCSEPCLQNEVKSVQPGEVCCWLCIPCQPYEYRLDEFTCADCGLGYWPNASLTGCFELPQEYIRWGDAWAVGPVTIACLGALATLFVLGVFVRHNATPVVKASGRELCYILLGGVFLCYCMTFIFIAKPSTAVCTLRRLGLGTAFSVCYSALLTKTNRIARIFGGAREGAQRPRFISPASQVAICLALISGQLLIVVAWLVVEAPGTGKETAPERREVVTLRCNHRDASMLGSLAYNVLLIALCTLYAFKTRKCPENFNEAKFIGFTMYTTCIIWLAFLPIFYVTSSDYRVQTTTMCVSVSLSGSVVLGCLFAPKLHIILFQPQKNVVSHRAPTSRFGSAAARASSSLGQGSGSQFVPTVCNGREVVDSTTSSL

Compound | EC50 [nM]
CO[C@]1(c2ccc(F)cc2)CC[C@H](Oc2ccn3c(C4CC4(F)F)nnc3c2C(F)(F)F)CC1 (single isomer, unassigned) [Example 87, TFA salt] | 61
CC(C)(COc1ccn2c(CC3CC3)nnc2c1C(F)(F)F)c1ccc(Cl)cc1 [Example 2, 7-(2-(4-Chlorophenyl)-2-methylpropoxy)-3-(cyclopropylmethyl)-8-(trifluoromethyl)-[1,2,4]triazolo[4,3-a]pyridine] | 5.5
N#Cc1c(OC[C@H]2C[C@@H]2c2ccc(F)cc2)ccn2c(CC3CC3)nnc12 [Example 3, 3-(Cyclopropylmethyl)-7-(((1S,2S)-2-(4-fluorophenyl)cyclopropyl)methoxy)-[1,2,4]triazolo[4,3-a]pyridine-8-carbonitrile] | 11
CC(C)(COc1ccn2c(CC3CC3)nnc2c1C(F)(F)F)c1ccc(F)cc1 [Example 6, 3-(Cyclopropylmethyl)-7-(2-(4-fluorophenyl)-2-methylpropoxy)-8-(trifluoromethyl)-[1,2,4]triazolo[4,3-a]pyridine] | 11
CC(C)(COc1ccn2c(CC(F)(F)F)nnc2c1C(F)(F)F)c1ccc(Cl)cc1 [Example 7, 7-(2-(4-Chlorophenyl)-2-methylpropoxy)-3-(2,2,2-trifluoroethyl)-8-(trifluoromethyl)-[1,2,4]triazolo[4,3-a]pyridine] | 13
CC(C)(COc1ccn2c(CC3CC3)nnc2c1C(F)(F)F)Oc1ccc(F)cc1 [Example 8, 3-(Cyclopropylmethyl)-7-(2-(4-fluorophenoxy)-2-methylpropoxy)-8-(trifluoromethyl)-[1,2,4]triazolo[4,3-a]pyridine] | 11
CC(C)(COc1ccn2c(CC(F)(F)F)nnc2c1C(F)(F)F)Oc1ccc(F)cc1 [Example 11, 7-(2-(4-Fluorophenoxy)-2-methylpropoxy)-3-(2,2,2-trifluoroethyl)-8-(trifluoromethyl)-[1,2,4]triazolo[4,3-a]pyridine] | 18
CC(C)(COc1ccn2c(CC3CC3)nnc2c1C(F)(F)F)Oc1ccc(Cl)cc1 [Example 13, 7-(2-(4-Chlorophenoxy)-2-methylpropoxy)-3-(cyclopropylmethyl)-8-(trifluoromethyl)-[1,2,4]triazolo[4,3-a]pyridine] | 13
CC(C)(COc1ccn2c(CC3CC3)nnc2c1C(F)(F)F)Oc1ccc(F)cc1F [Example 16, 3-(Cyclopropylmethyl)-7-(2-(2,4-difluorophenoxy)-2-methylpropoxy)-8-(trifluoromethyl)-[1,2,4]triazolo[4,3-a]pyridine] | 15
CCOCc1nnc2c(C(F)(F)F)c(OCC(C)(C)Oc3ccc(Cl)cc3)ccn12 [Example 18, 7-(2-(4-Chlorophenoxy)-2-methylpropoxy)-3-(ethoxymethyl)-8-(trifluoromethyl)-[1,2,4]triazolo[4,3-a]pyridine] | 5.9

These reach a lower EC50. Values come first.

EC50 [nM] | Compound
3.1 | CO[C@]1(c2ccc(F)cc2)CC[C@H](Oc2ccn3c(C4CC4(F)F)nnc3c2C(F)(F)F)CC1 (single isomer, unassigned) [Example 88, TFA salt]
2.6 | Fc1ccc(C2CC2COc2ccn3c(CC4CC4)nnc3c2C(F)(F)F)cc1 (single isomer, unassigned) [Example 78]
1.8 | FC(F)(F)c1c(OCC2(c3ccccc3)CCCCC2)ccn2c(CC3CC3)nnc12 [Example 1, 3-(Cyclopropylmethyl)-7-((1-phenylcyclohexyl)methoxy)-8-(trifluoromethyl)-[1,2,4]triazolo[4,3-a]pyridine]
1.4 | N#C[C@]1(c2ccc(F)cc2)CC[C@H](Oc2ccn3c(CC4CC4)nnc3c2C(F)(F)F)CC1 [Example 17, (1s,4s)-4-(3-(Cyclopropylmethyl)-8-(trifluoromethyl)-[1,2,4]triazolo[4,3-a]pyridin-7-yloxy)-1-(4-fluorophenyl)cyclohexanecarbonitrile]
1.1 | Fc1ccc([C@@H]2C[C@H]2COc2ccn3c(CC4CC4)nnc3c2C(F)(F)F)cc1 (single isomer, unassigned) [Example 79]
